Test results taken from US20230406873A1, “PROBES, SYSTEMS, AND METHODS FOR MAGNETIC RESONANCE PH SENSING” (The General Hospital Corporation, priority 2020, published 2023).
Read-outs that look alike come from different tables or passages of the source. Marks after values point to notes of the source that are not given here.

Columns and labels:
[1] = pH-potentiometry of 1:1 ligand and Fe3+ solution (complex protonation constants, speciation); type: physicochemical; conditions: Fe^3+ complex, 0.1 M NaCl, 310 K; for log KML/ML(OH): 7.0 mM each Fe and ligand, [ML]/[ML(OH)][H], not an absolute protonation constant; for log KHML: KHML = [HML]/[H][ML]; for log KML: footnote d only: pH-potentiometry
Procedure: (§1) pH-potentiometric measurements: pH-potentiometric measurements were performed using an Orion ROSS Ultra pH electrode and temperature-controlled reaction vessel held at 310 K. A standardized solution of 0.10 M NaOH was used as the titrant. The electrode was calibrated prior to each titration by titrating a standardized HCl(aq) solution at ionic strength 0.10 using NaCl as the inert electrolyte with the standardized NaOH titrant. A working slope and intercept were generated by plotting mV as a function of calculated pH, which enabled direct conversion of electrode readings to [H^+] during sample titrations. pH values recorded during the titrations refers to hydrogen ion concentration. All titration samples were prepared in solutions of 0.10 M NaCl in distilled, de-ionized water. Ligand solutions were prepared by dissolving a weighed quantity into the electrolyte and concentration was calculated from the effective weight of the ligand. Moles ligand present in titrand was also confirmed by measuring the mol added NaOH required to span each inflection point. Solutions of 1:1 ligand: Fe were prepared by adding an appropriate volume of standardized FeCl3 in 0.088 M HCl solution to a weighed quantity of ligand, the solutions were then adjusted with water and 1 M NaCl to ionic strength 0.10. The data was analyzed using the Hyperquad2013 software package.

[2] = pH-potentiometry of ligand (protonation constants); type: physicochemical; conditions: 0.1 M NaCl, 310 K; for log KLH: KLHn = [HnL]/[H][Hn-1L]
Procedure: as §1

[3] = Estimation of log K (formation constant) from EDTA competition assay, HPLC; type: physicochemical; conditions: Fe^3+ complex; estimated from Kcomp using EDTA challenge; KML = [ML]/[M][L]
From the text: The [Fe(PyCy2AI)]^+ formation constant was estimated from direct competition with EDTA at pH 4.4, I=0.1 M KNO3, and 310 K. Product distribution at equilibrium was estimated from an HPLC analysis of the reaction mixture (HPLC method A1). The equilibrium concentrations of [Fe(PyCy2AI)]^+ were quantified according to a linear calibration plot of HPLC peak area as a function of chelate concentration. An equilibrium constant, Keq, was estimated using Eq 4A,
The conditional (pH 4.4) formation constant, Kcond, was estimated from Keq and the previously (Kcond of Fe-EDTA measured under identical conditions using Eq 4B,
Under HPLC experimental conditions that cannot distinguish between chemical forms of the complex, the conditional stability constant can be estimated from the concentration coefficient of the ligand “L”, or PyCy2AI^2−, species (αL), which is known from the ligand pH-titration data. The formation constant was thus estimated using Eq 4C,
The HPLC assay conditions were chosen specifically to minimize contributions from ‘side products’ such as [Fe(HPyCy2AI)]^2+, [Fe(PyC2AI)(OH)], or [Fe(HEDTA)], which together we estimate to contribute <5% and <2% of total PyCy2AI and EDTA speciation.

[4] = Dimerization constant from concentration dependence on relaxivity at pH 9.0; type: physicochemical; conditions: Fe^3+ complex, pH 9.0, 310 K
From the text: (§2) The dissociation constant for (ML)2O formation was estimated from the concentration dependence on r1 at pH 9.0, under these experimental conditions, complexes speciation is comprised near entirely by ML(OH) and the corresponding (ML)2O dimer and r1 can be expressed as Eq 7A, […]
r1=r1^monαmon+r1^dimαdim (Eq 7A) where r1^mon and r1^dim are the r1 corresponding to ML(OH) and (ML)2O and αmon and αdim are the fraction of total [Fe] comprised by each.
The concentration dependence on monomer vs. dimer speciation is governed by the equilibrium constant (Kd) in Eq 7B, Eq 7B can be rearranged to the corresponding quadratic equation, Eq 7C, and concentration of dimer solved by Eq 7D, Thus, the concentration dependence on ri was fit to a 3 parameter fit based on Eqs 7A-7D, yielding estimates of r1^mon, r1^dim, and Kd.

[5] = Dimerization constant from concentration dependence on extinction coefficient at 342 nm (UV-vis); type: physicochemical; conditions: Fe^3+ complex, pH 9.0, 310 K
Procedure: UV-vis spectra were recorded on a SpectraMax M2 spectrophotometer using quartz cuvettes with a 1 cm path length. Extinction coefficients recorded at pH 9 (ε, M^−1cm^−1) were estimated by dividing absorbance by sample Fe concentration.

[6] = Fe^3+ complexes of reference ligands; method and conditions not given; cited from earlier work
[7] = Relaxivity measurements (r1) of Fe-PyCy2AI species; type: physicochemical; conditions: Fe^3+ complex; estimated from pH dependence on r1
Procedure: Relaxivity measurements were performed on a Bruker mq60 Minispec, 1.41 T, and on an 11.7 T Varian NMR spectrometer at 37° C. Longitudinal (T1) relaxation times were measured via an inversion recovery experiment using 10 inversion times of duration ranging between 0.05 s T1 and 5 s T1. Transverse (T2) relaxation times were measured using a Carl-Purcell-Meiboom-Gill spin-echo experiment. Under experimental conditions where 1/T1,2 increased linearly with increasing [Fe], relaxivity (r2i=1,2) was determined from the slope of a plot of 1/Ti(i=1,2) vs. [Fe] for at least 4 concentrations. Under conditions where non-negligible dimerization occurs, plots of 1/T1,2 vs. [Fe] are non-linear and r1,2 were estimated by dividing the Fe induced increase in 1/T1,2 by [Fe]. […]
as §2
Magnetic resonance imaging was performed using a Bruker Biospec 4.7 T system. […] T1 values for each compound was determined using a 2D rapid acquisition refocused echo (RARE) sequence of flip angle (FA)=90°, echo time (TE)=20 ms, repetition time (TR) ranging from 146-7500 ms, acquisition matrix=256×128, field of view=64×32 mm, slice thickness 1 mm. […]

Row | SMILES | log KML/ML(OH) [1] | log KHML ([1]; 7.0 mM ligand and Fe^3+) | log KMLH-1/MLH-2 ([1]; 7.0 mM ligand and Fe^3+, [MLH-1]/[MLH-2][H]) | log KLH2 [2] | log KLH3 [2] | log KLH4 [2] | log KLH [2] | log KML [3] | Dimerization Ka ([4]; 1.4 T) | Dimerization Ka ([4]; 4.7 T) | Dimerization Ka ([4]; 11.7 T) | Dimerization Ka [5] | log KML ([1]; 7.0 mM ligand and Fe^3+) | Dimerization Ka [6] | log KML/ML(OH) [7]
1 | O=C(O)CN(Cc1c[nH]cn1)C1CCCC[C@@H]1N(CC(=O)O)Cc1ccccn1 (mixture of isomers) [PyCy2AI, (±)-trans-N-((1H-imidazol-4-yl)methyl)-N′-(picolyl)-N,N′-cyclohexane-1,2-diamine diacetate bis-trifluoroacetic acid] | 6.46 ± 0.03 | 2.91 ± 0.05 | 10.24 ± 0.05 | 6.44 ± 0.03 | 4.23 ± 0.033 | 2.27 ± 0.05 | 10.62 ± 0.04 | 23.9 ± 0.03^c | 2.3 ± 0.57 mM⁻¹ | 5.1 ± 2.7 mM⁻¹ | 7.4 ± 5.5 mM⁻¹ | 6.2 ± 1.5 mM⁻¹ | – | – | –
2 | O=C(O)CN(CC(=O)O)C1CCCCC1N(CC(=O)O)CC(=O)O (stereo not shown) [CyDTA, 1,2-Cyclohexylenedinitrilotetraacetic acid] | 9.57 | – | – | 6.12 | 3.49 | 2.40 | 12.3 | – | – | – | – | – | 29.1 | 0.012 mM⁻¹ | –
3 | O=C(O)CN(CCN(CC(=O)O)CC(=O)O)CC(=O)O [EDTA, Ethylenediaminetetraacetic acid] | 7.37 | 1.3 | – | 6.13 | 2.69 | 2.00 | 10.19 | – | – | – | – | – | 25.1 | 0.44 mM⁻¹ | –
4 | O=C(O)CN(CCO)CCN(CC(=O)O)CC(=O)O [HEDTA, Hydroxyethylethylenediaminetriacetic acid] | – | – | – | – | – | – | – | – | – | – | – | – | – | 0.24 mM⁻¹ | –
5 | CC(CN(CC(=O)O)CC(=O)O)N(CC(=O)O)CC(=O)O (stereo not shown) [PDTA, N,N,N′,N′-1,2-propylenediaminetetracetic acid] | – | – | – | – | – | – | – | – | – | – | – | – | – | 0.19 mM⁻¹ | –
6 | O=C(O)CN(CC(=O)O)[C@H]1CCCC[C@@H]1N(CC(=O)O)Cc1ccccn1 [PyC3A] | – | – | – | 6.39 | 3.13 | – | 10.16 | 26.0^c | – | – | – | – | – | – | 8.50^g
